Assay results: patent US20240124422A1, “MUTANT PI3K-ALPHA INHIBITORS AND THEIR USE AS PHARMACEUTICALS” (Prelude Therapeutics Incorporated, priority 2022, published 2024)
pIC50: −log10 of the molar value. Like-named read-outs stand apart in the source and are kept apart here.

Tested on: phosphorylation of AKT on Ser473 as a readout of the PI3K pathway in T-47D (heterozygous PIK3CA H1047R) cells
Experiment: PI3K pathway activation assay, pAKT Ser473 HTRF, T-47D cells
Type: cell-based
Conditions: two hours of treatment
Procedure: The inhibitory activity of compounds was evaluated by measuring phosphorylation of AKT on Ser473 as a readout of the PI3K pathway using HTRF (CisBio catalog number: 64AKSPE). These studies were conducted in the T-47D (heterozygous PIK3CA H1047R) and SKBR3 (PIK3CA WT) cell lines. Cells were maintained in a 37° C. incubator at 5% CO2 in the following media: T-47D: RPMI 1640, ATCC© Modification (Gibco, A10491-01) supplemented with 10% v/v FBS (Gibco, 26140-079), 1% penicillin streptomycin (Gibco, 15140-122), and 7.4 ug/mL insulin (MilliporeSigma, I9278); SKBR3: McCoy's 5a (Modified) Medium (Gibco, 16600-082) supplemented with 10% v/v FBS (Gibco, 26140-079). Cells were seeded in 384-well plates at a density of 4,000 cells/well. Compounds dissolved in DMSO were added using a digital dispense (D300E, Tecan) 10-point serial dilution. After two hours of treatment, cells were lysed for thirty minutes and then incubated with detection reagents per HTRF kit material and manufacturer's instructions. Fluorescence signal was measured with a multimode plate reader (Envision 2105, Perkin Elmer). Fluorescent signal was normalized to background and DMSO controls to obtain percent inhibition/activity for each compound.

SMILES	pIC50 (Homo sapiens, T47D, 2 h)	pIC50 (read-out: T47D pAKT IC50)
Cc1cc(C(C)Nc2ncccc2C(=O)O)c2nc(N3Cc4ccccc4C3)n(C)c(=O)c2c1 (stereo not shown) [Example 36, 2-((1-(2-(isoindolin-2-yl)-3,6-dimethyl-4-oxo-3,4-dihydroquinazolin-8-yl)ethyl)amino)nicotinic acid]	5.00 to 6.30	–
Cc1cc(C(C)Nc2ccccc2C(=O)O)c2nc(N3CCc4ccccc4C3)n(C)c(=O)c2c1 (stereo not shown) [Example 51, 2-[1-[2-(3,4-dihydro-1H-isoquinolin-2-yl)-3,6-dimethyl-4-oxoquinazolin-8-yl]ethylamino]benzoic acid]	5.00 to 6.30	–
CCC(Nc1ccccc1C(=O)O)c1cc(C)cc2c(=O)n(C)c(N3CC4CC4C3)nc12 (stereo not shown) [Example 97, 2-((1-(2-(3-azabicyclo[3.1.0]hexan-3-yl)-3,6-dimethyl-4-oxo-3,4-dihydro-quinazolin-8-yl)propyl)amino)benzoic acid]	5.00 to 6.30	–
Cc1cc(C(C)Nc2ccccc2C(=O)O)c2nc(N3CCC4(CC3)CN(C(=O)OC(C)(C)C)C4)n(C)c(=O)c2c1 (stereo not shown) [Example 108, 2-[1-[3,6-dimethyl-2-[2-[(2-methylpropan-2-yl)oxycarbonyl]-2,7-diazaspiro[3.5]nonan-7-yl]-4-oxoquinazolin-8-yl]ethylamino]benzoic acid]	5.00 to 6.30	–
Cc1cc(C(C)Nc2ccccc2C(=O)O)c2nc(N3CCS(=O)(=O)CC3)n(C)c(=O)c2c1 (stereo not shown) [Example 56, 2-((1-(2-(1,1-dioxidothiomorpholino)-3,6-dimethyl-4-oxo-3,4-dihydroquinazolin-8-yl)ethyl)amino)benzoic acid]	5.00 to 6.30	–
CC(Nc1ccccc1C(=O)O)c1cc(C(F)(F)F)cc2c(=O)n(C)c(N3CC4CC4C3)nc12 (stereo not shown) [Example 16, 2-((1-(2-(3-azabicyclo[3.1.0]hexan-3-yl)-3-methyl-4-oxo-6-(trifluoromethyl)-3,4-dihydroquinazolin-8-yl)ethyl)amino)benzoic acid]	5.00 to 6.30	–
Cc1cc(C(C)Nc2ccccc2C(=O)O)c2nc(N3C[C@@H]4[C@H](C3)[C@H]4NC(=O)OCC3CCCO3)n(C)c(=O)c2c1 (stereo partly drawn) [Example 64, 2-((1-(3,6-dimethyl-4-oxo-2-((1R,5S,6s)-6-((((tetrahydrofuran-2-yl)methoxy)carbonyl)amino)-3-azabicyclo[3.1.0]hexan-3-yl)-3,4-dihydroquinazolin-8-yl)ethyl)amino)benzoic acid]	–	5.00 to 6.30
Cc1cc(C(C)Nc2ccccc2C(=O)O)c2nc(O)n(C)c(=O)c2c1 (stereo not shown) [Example 42, 2-((1-(2-hydroxy-3,6-dimethyl-4-oxo-3,4-dihydroquinazolin-8-yl)ethyl)amino) benzoic acid]	5.00 to 6.30	–
Cc1cc(C(C)Nc2ccccc2C(=O)O)c2nc(-c3ccn[nH]3)n(C)c(=O)c2c1 (stereo not shown) [Example 25, 2-((1-(3,6-dimethyl-4-oxo-2-(1H-pyrazol-5-yl)-3,4-dihydroquinazolin-8-yl)ethyl)amino)benzoic acid]	5.00 to 6.30	–
Cc1cc(C(Nc2ccccc2C(=O)O)C(F)F)c2nc(N3CC4CC4C3)n(C)c(=O)c2c1 (stereo not shown) [Example 96, 2-((1-(2-(3-azabicyclo[3.1.0]hexan-3-yl)-3,6-dimethyl-4-oxo-3,4-dihydro-quinazolin-8-yl)-2,2-difluoroethyl)amino)benzoic acid]	5.00 to 6.30	–
Cc1cc(C(C)Nc2ccccc2C(=O)O)c2nc(N3CC4CC3C4)n(C)c(=O)c2c1 (stereo not shown) [Example 117, 2-((1-(2-(2-Azabicyclo[2.1.1]hexan-2-yl)-3,6-dimethyl-4-oxo-3,4-dihydroquinazolin-8-yl)ethyl)amino)benzoic acid]	5.00 to 6.30	–
Cc1cc(C(C)Nc2ccccc2C(=O)O)c2nc(N3C[C@@H]4C(NC(=O)OCCN5CCOCC5)[C@@H]4C3)n(C)c(=O)c2c1 (stereo partly drawn) [Example 61, 2-((1-(3,6-dimethyl-2-((1R,5S,6s)-6-(((2-morpholinoethoxy)carbonyl)amino)-3-azabicyclo[3.1.0]hexan-3-yl)-4-oxo-3,4-dihydroquinazolin-8-yl)ethyl)amino)benzoic acid]	–	5.00 to 6.30
Cc1cc(C(C)Nc2ccccc2C(=O)O)c2nc(N3CC4CC4C3)n(C(F)F)c(=O)c2c1 (stereo not shown) [Example 102, 2-((1-(2-(3-Azabicyclo[3.1.0]hexan-3-yl)-3-(difluoromethyl)-6-methyl-4-oxo-3,4-dihydroquinazolin-8-yl)ethyl)amino)benzoic acid]	5.00 to 6.30	–
Cc1cc(C(C)Nc2ccccc2C(=O)O)c2nc(N3CCN(C(=O)C45CC(F)(C4)C5)CC3)n(C)c(=O)c2c1 (stereo not shown) [Example 92, 2-((1-(2-(4-(3-Fluorobicyclo[1.1.1]pentane-1-carbonyl)piperazin-1-yl)-3,6-dimethyl-4-oxo-3,4-dihydroquinazolin-8-yl)ethyl)amino)benzoic acid]	5.00 to 6.30	–
COCC(=O)N1CCN(c2nc3c(C(C)Nc4ccccc4C(=O)O)cc(C)cc3c(=O)n2C)CC1 (stereo not shown) [Example 93, 2-((1-(2-(4-(2-Methoxyacetyl)piperazin-1-yl)-3,6-dimethyl-4-oxo-3,4-dihydro-quinazolin-8-yl)ethyl)amino)benzoic acid]	5.00 to 6.30	–
CC(Nc1ccccc1C(=O)O)c1cc(C(F)F)cc2c(=O)n(C)c(N3CC4CC4C3)nc12 (stereo not shown) [Example 79, 2-((1-(2-(3-Azabicyclo[3.1.0]hexan-3-yl)-6-(difluoromethyl)-3-methyl-4-oxo-3,4-dihydroquinazolin-8-yl)ethyl)amino)benzoic acid]	5.00 to 6.30	–
Cc1cc(C(C)Nc2ccc(C(F)(F)F)nc2C(=O)O)c2nc(N3CC4CC4C3)n(C)c(=O)c2c1 (stereo not shown) [Example 80, 3-((1-(2-(3-azabicyclo[3.1.0]hexan-3-yl)-3,6-dimethyl-4-oxo-3,4-dihydro-quinazolin-8-yl)ethyl)amino)-6-(trifluoromethyl)picolinic acid]	5.00 to 6.30	–
COc1cc(C(C)Nc2ccccc2C(=O)O)c2nc(N3CC4CC4C3)n(C)c(=O)c2c1 (stereo not shown) [Example 77, 2-((1-(2-(3-azabicyclo[3.1.0]hexan-3-yl)-6-methoxy-3-methyl-4-oxo-3,4-dihydroquinazolin-8-yl)ethyl)amino)benzoic acid]	5.00 to 6.30	–
Cc1cc(C(C)Nc2ccc(C(F)(F)F)cc2C(=O)O)c2nc(N3Cc4ccccc4C3)n(C)c(=O)c2c1 (stereo not shown) [Example 30, 2-((1-(2-(isoindolin-2-yl)-3,6-dimethyl-4-oxo-3,4-dihydroquinazolin-8-yl)ethyl)amino)-5-(trifluoromethyl)benzoic acid]	5.00 to 6.30	–
Cc1cc(C(C)Nc2ccccc2C(=O)O)c2nc(N)n(C)c(=O)c2c1 (stereo not shown) [Example 26, 2-((1-(2-amino-3,6-dimethyl-4-oxo-3,4-dihydroquinazolin-8-yl)ethyl)amino) benzoic acid]	5.00 to 6.30	–
Cc1cc(C(C)Nc2ccccc2C(=O)O)c2nc(N3CCC(C)(C)CC3)n(C)c(=O)c2c1 (stereo not shown) [Example 3, 2-((1-(2-(4,4-dimethylpiperidin-1-yl)-3,6-dimethyl-4-oxo-3,4-dihydroquinazolin-8-yl)ethyl)amino)benzoic acid]	–	5.00 to 6.30
Cc1cc(C(C)Nc2cc(F)ccc2C(=O)O)c2nc(N3Cc4ccccc4C3)n(C)c(=O)c2c1 (stereo not shown) [Example 32, 4-fluoro-2-((1-(2-(isoindolin-2-yl)-3,6-dimethyl-4-oxo-3,4-dihydroquinazolin-8-yl)ethyl)amino)benzoic acid]	> 6.30	–
Cc1cc(C(C)Nc2ccccc2C(=O)O)c2nc(N3CCN(C(=O)c4ccc(C)nc4)CC3)n(C)c(=O)c2c1 (stereo not shown) [Example 94, 2-((1-(3,6-Dimethyl-2-(4-(6-methylnicotinoyl)piperazin-1-yl)-4-oxo-3,4-dihydro-quinazolin-8-yl)ethyl)amino)benzoic acid]	> 6.30	–
Cc1cc(C(C)Nc2ccccc2C(=O)O)c2nc(N3CC4(C3)CC(F)(F)C4)n(C)c(=O)c2c1 (stereo not shown) [Example 109, 2-[1-[2-(6,6-difluoro-2-azaspiro[3.3]heptan-2-yl)-3,6-dimethyl-4-oxoquinazolin-8-yl]ethylamino]benzoic acid]	> 6.30	–
CONC(=O)c1ccccc1NC(C)c1cc(C)cc2c(=O)n(C)c(N3Cc4ccccc4C3)nc12 (stereo not shown) [Example 5, 2-((1-(2-(isoindolin-2-yl)-3,6-dimethyl-4-oxo-3,4-dihydroquinazolin-8-yl)ethyl)amino)-N-methoxybenzamide]	5.00 to 6.30	–
CCc1cc(C(C)Nc2ccccc2C(=O)O)c2nc(N3CC4CC4C3)n(C)c(=O)c2c1 (stereo not shown) [Example 78, 2-((1-(2-(3-Azabicyclo[3.1.0]hexan-3-yl)-6-ethyl-3-methyl-4-oxo-3,4-dihydroquinazolin-8-yl)ethyl)amino)benzoic acid]	5.00 to 6.30	–
COc1ccc(OC(=O)NC2[C@H]3CN(c4nc5c(C(C)Nc6ccccc6C(=O)O)cc(C)cc5c(=O)n4C)C[C@@H]23)cc1 (stereo partly drawn) [Example 62, 2-((1-(2-((1R,5S,6s)-6-(((4-methoxyphenoxy)carbonyl)amino)-3-azabicyclo[3.1.0]hexan-3-yl)-3,6-dimethyl-4-oxo-3,4-dihydroquinazolin-8-yl)ethyl)amino)benzoic acid]	–	5.00 to 6.30
Cc1cc(C(C)Nc2ccccc2C(=O)O)c2nc(N3CCC(C)(C)CC3)n(C)c(=O)c2c1 (stereo not shown) [Example 17, 2-((1-(2-(4,4-dimethylpiperidin-1-yl)-3,6-dimethyl-4-oxo-3,4-dihydroquinazolin-8-yl)ethyl)amino)benzoic acid]	> 6.30	–
